{"source": "ChEMBL document CHEMBL1152459", "about": "“Drugs designed to inhibit human p38 mitogen-activated protein kinase activation treat Toxoplasma gondii and Encephalitozoon cuniculi infection” (Antimicrob Agents Chemother, 2007)", "key": {"Toxoplasma gondii [1]": {"system": "Toxoplasma gondii", "test": "(§1) Antiprotozoal activity against 5 MOI SB-203580-resistant Toxoplasma gondii SBRMe49-2 tachyzoites infected in confluent HFF assessed as inhibition of [3H]uracil incorporation into tachyzoites at 0.25 to 10 uM treated 4 hrs after infection measured after overnight incubation post uracil addition by liquid scintillation counting", "format": "functional, organism-based"}, "[2]": {"molecular_target": "T1, Mitogen-activated protein kinase 1 (Toxoplasma gondii, UniProt Q5SC61)", "T1 sequence (Q5SC61 whole entry)": "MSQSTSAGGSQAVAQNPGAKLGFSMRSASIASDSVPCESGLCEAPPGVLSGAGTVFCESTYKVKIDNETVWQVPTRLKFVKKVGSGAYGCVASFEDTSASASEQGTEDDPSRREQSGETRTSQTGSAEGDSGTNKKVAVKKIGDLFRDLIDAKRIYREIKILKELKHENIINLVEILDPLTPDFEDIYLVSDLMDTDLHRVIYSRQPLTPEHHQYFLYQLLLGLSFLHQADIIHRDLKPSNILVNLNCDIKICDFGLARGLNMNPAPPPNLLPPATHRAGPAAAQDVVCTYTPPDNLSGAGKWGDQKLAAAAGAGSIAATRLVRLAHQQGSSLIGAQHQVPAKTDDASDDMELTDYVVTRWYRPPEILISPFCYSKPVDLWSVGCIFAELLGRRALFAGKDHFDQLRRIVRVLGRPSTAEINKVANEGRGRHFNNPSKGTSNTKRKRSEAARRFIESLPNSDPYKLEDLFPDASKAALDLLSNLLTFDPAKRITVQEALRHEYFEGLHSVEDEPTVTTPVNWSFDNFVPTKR", "test": "Inhibition of Toxoplasma gondii recombinant MAPK1 expressed in Escherichia coli", "format": "cell-free"}, "Toxoplasma gondii [3]": {"system": "Toxoplasma gondii", "test": "Antiprotozoal activity against 1000 Toxoplasma gondii RH tachyzoites infected in CBA/J mouse assessed as prolongation of survival of mous at 3.8 mg/kg, ip administered 24 hrs postinfection for 7 consecutive days", "format": "functional, organism-based", "design": "dose 3.8 mg/kg"}, "Toxoplasma gondii [4]": {"system": "Toxoplasma gondii", "test": "Antiprotozoal activity against 1000 Toxoplasma gondii RH tachyzoites infected in CBA/J mouse assessed as prolongation of survival of mous at 7.5 mg/kg, ip administered 24 hrs postinfection for 7 consecutive days", "format": "functional, organism-based", "design": "dose 7.5 mg/kg"}, "Toxoplasma gondii [5]": {"system": "Toxoplasma gondii", "test": "Antiprotozoal activity against 1000 Toxoplasma gondii RH tachyzoites infected in CBA/J mouse assessed as prolongation of survival of mous at 15 mg/kg, ip administered 24 hrs postinfection for 7 consecutive days", "format": "functional, organism-based", "design": "dose 15 mg/kg"}, "Toxoplasma gondii [6]": {"system": "Toxoplasma gondii", "test": "Antiprotozoal activity against 1000 Toxoplasma gondii RH tachyzoites infected in CBA/J mouse assessed as prolongation of survival of mous at 30 mg/kg, ip administered 24 hrs postinfection for 7 consecutive days", "format": "functional, organism-based", "design": "dose 30 mg/kg"}, "Toxoplasma gondii [7]": {"system": "Toxoplasma gondii", "test": "Antiprotozoal activity against 1000 Toxoplasma gondii RH tachyzoites infected in CBA/J mouse assessed as prolongation of survival of mous at 60 mg/kg, ip administered 24 hrs postinfection for 7 consecutive days", "format": "functional, organism-based", "design": "dose 60 mg/kg"}, "Toxoplasma gondii [8]": {"system": "Toxoplasma gondii", "test": "Antiprotozoal activity against 100 Toxoplasma gondii RH tachyzoites infected in CBA/J mouse assessed as prolongation of survival of mous at 30 mg/kg, ip twice daily for 7 consecutive days administered 2 hrs postinfection", "format": "functional, organism-based", "design": "dose 30 mg/kg"}, "Toxoplasma gondii [9]": {"system": "Toxoplasma gondii", "test": "Antiprotozoal activity against 100 Toxoplasma gondii RH tachyzoites infected in CBA/J mouse survival at 60 mg/kg, ip administered 2 hrs postinfection once daily for 7 consecutive days", "format": "functional", "conditions": "route intraperitoneal"}, "Toxoplasma gondii [10]": {"system": "Toxoplasma gondii", "test": "Antiprotozoal activity against 100 Toxoplasma gondii RH tachyzoites infected in CBA/J mouse assessed as prolongation of survival of mous at 30 mg/kg, ip administered 24 hrs postinfection twice daily for 7 consecutive days", "format": "functional, organism-based", "design": "dose 30 mg/kg"}, "Toxoplasma gondii [11]": {"system": "Toxoplasma gondii", "test": "Antiprotozoal activity against 100 Toxoplasma gondii RH tachyzoites infected in CBA/J mouse assessed as prolongation of survival of mous at 60 mg/kg, ip administered 24 hrs postinfection once daily for 7 consecutive days", "format": "functional, organism-based", "design": "dose 60 mg/kg"}, "Toxoplasma gondii [12]": {"system": "Toxoplasma gondii", "test": "Antiprotozoal activity against 20 Toxoplasma gondii RH tachyzoites infected in CBA/J mouse assessed as prolongation of survival of mous at 30 mg/kg, ip administered 2 hrs postinfection for 7 consecutive days", "format": "functional", "conditions": "route intraperitoneal"}, "Toxoplasma gondii [13]": {"system": "Toxoplasma gondii", "test": "Antiprotozoal activity against 20 Toxoplasma gondii RH tachyzoites infected in CBA/J mouse assessed as prolongation of survival of mous at 60 mg/kg, ip administered 2 hrs postinfection for 7 consecutive days", "format": "functional", "conditions": "route intraperitoneal"}, "Toxoplasma gondii [14]": {"system": "Toxoplasma gondii", "test": "Antiprotozoal activity against 20 Toxoplasma gondii RH tachyzoites infected in CBA/J mouse assessed as prolongation of survival of mous at 50 mg/kg, po administered 2 hrs postinfection for 7 consecutive days", "format": "functional, organism-based", "design": "dose 50 mg/kg"}, "Toxoplasma gondii [15]": {"system": "Toxoplasma gondii", "test": "Antiprotozoal activity against 20 Toxoplasma gondii RH tachyzoites infected in CBA/J mouse assessed as prolongation of survival of mous at 17 mg/kg, po administered 2 hrs postinfection for 7 consecutive days", "format": "functional, organism-based", "design": "dose 17 mg/kg"}, "Mus musculus [16]": {"system": "Mus musculus", "test": "Toxicity in CBA/J mouse assessed as occasional and transient fur ruffling at 60 mg/kg, ip", "format": "organism-based", "design": "dose 60 mg/kg, route intraperitoneal", "conditions": "in vivo"}, "Mus musculus [17]": {"system": "Mus musculus", "test": "Toxicity in CBA/J mouse at 30 mg/kg, ip", "format": "organism-based", "design": "dose 30 mg/kg, route intraperitoneal", "conditions": "in vivo"}, "Mus musculus [18]": {"system": "Mus musculus", "test": "Toxicity in CBA/J mouse at 50 mg/kg, po", "format": "organism-based", "design": "dose 50 mg/kg, route oral", "conditions": "in vivo"}, "Mus musculus [19]": {"system": "Mus musculus", "test": "Toxicity in CBA/J mouse at 17 mg/kg, po", "format": "organism-based", "design": "dose 17 mg/kg, route oral", "conditions": "in vivo"}, "Encephalitozoon cuniculi [20]": {"system": "Encephalitozoon cuniculi", "test": "Antiprotozoal activity against Encephalitozoon cuniculi infected in CD8 knockout […] mouse assessed as prolongation of survival of mous-related absence of ascites fluid and sluggishness at 36 mg/kg, ip administered 2 days after infection for 15 consecutive days", "format": "functional, organism-based", "design": "dose 36 mg/kg"}, "Encephalitozoon cuniculi [21]": {"system": "Encephalitozoon cuniculi", "test": "Antiprotozoal activity against Encephalitozoon cuniculi infected in CD8 knockout […] mouse mouse survival at 6 mg/kg, ip administered 2 days after infection for 15 consecutive days", "format": "functional, organism-based", "design": "dose 6 mg/kg"}, "Toxoplasma gondii [22]": {"system": "Toxoplasma gondii", "test": "Antiprotozoal activity against 2000Toxoplasma gondii RH tachyzoites infected 30 days after initial 100 parasite infection in CBA/J mouse assessed as mouse survival time at 60 mg/kg, ip administered 2 hrs postinfection for 7 consecutive days", "conditions": "route intraperitoneal"}, "Toxoplasma gondii [23]": {"system": "Toxoplasma gondii", "test": "Antiprotozoal activity against 2000Toxoplasma gondii RH tachyzoites infected 30 days after initial 100 parasite infection in CBA/J mouse assessed as mouse survival time at 5 mg/kg, ip administered 2 hrs postinfection for 7 consecutive days", "conditions": "route intraperitoneal"}, "Toxoplasma gondii [24]": {"system": "Toxoplasma gondii", "test": "Antiprotozoal activity against 2000Toxoplasma gondii RH tachyzoites infected 30 days after initial 20 parasite infection in CBA/J mouse assessed as mouse survival time at 30 mg/kg, ip administered 2 hrs postinfection for 7 consecutive days", "conditions": "route intraperitoneal"}, "Toxoplasma gondii [25]": {"system": "Toxoplasma gondii", "test": "Antiprotozoal activity against 2000Toxoplasma gondii RH tachyzoites infected 30 days after initial 20 parasite infection in CBA/J mouse assessed as mouse survival time at 60 mg/kg, ip administered 2 hrs postinfection for 7 consecutive days", "conditions": "route intraperitoneal"}, "Toxoplasma gondii [26]": {"system": "Toxoplasma gondii", "test": "Antiprotozoal activity against 100 Toxoplasma gondii RH tachyzoites infected in CBA/J mouse survival at 60 mg/kg, ip administered 2 hrs postinfection once daily for 7 consecutive days in presence of pyrimethamine 5 mg/kg, po", "format": "functional"}, "Toxoplasma gondii [27]": {"system": "Toxoplasma gondii", "test": "Antiprotozoal activity against 100 Toxoplasma gondii RH tachyzoites infected in CBA/J mouse survival at 60 mg/kg, ip administered 2 hrs postinfection once daily for 7 consecutive days in presence of sulfadiazine 75 mg/liter", "format": "functional", "conditions": "route intraperitoneal"}, "[28]": {"molecular_target": "Mitogen-activated protein kinase 14 (Homo sapiens, UniProt Q16539)", "sequence (Q16539 whole entry)": "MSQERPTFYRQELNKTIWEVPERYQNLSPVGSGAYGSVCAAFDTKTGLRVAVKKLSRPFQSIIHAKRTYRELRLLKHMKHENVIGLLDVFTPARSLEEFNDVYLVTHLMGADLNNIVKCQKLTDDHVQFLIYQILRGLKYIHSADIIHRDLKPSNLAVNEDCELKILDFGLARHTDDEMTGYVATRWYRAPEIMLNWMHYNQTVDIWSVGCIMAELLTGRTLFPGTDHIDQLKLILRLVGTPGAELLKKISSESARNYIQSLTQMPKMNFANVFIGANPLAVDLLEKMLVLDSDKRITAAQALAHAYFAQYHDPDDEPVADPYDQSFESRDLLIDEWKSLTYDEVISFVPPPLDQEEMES", "description": "Inhibition of human recombinant p38alpha assessed as [gamma33P]ATP utilization by microplate scintillation counting"}, "Toxoplasma gondii [29]": {"system": "Toxoplasma gondii", "test": "microbe, parasite or virus in culture", "conditions": "RH", "description": "Antiprotozoal activity against 1 MOI Toxoplasma gondii RH tachyzoites infected in confluent HFF assessed as inhibition of [3H]uracil incorporation into tachyzoites treated 4 hrs after infection measured after overnight incubation post uracil addition by liquid scintillation counting"}, "Toxoplasma gondii [30]": {"system": "Toxoplasma gondii", "test": "microbe, parasite or virus in culture", "conditions": "ME49", "description": "Antiprotozoal activity against 5 MOI Toxoplasma gondii Me49 tachyzoites infected in confluent HFF assessed as inhibition of [3H]uracil incorporation into tachyzoites treated 4 hrs after infection measured after overnight incubation post uracil addition by liquid scintillation counting"}, "Toxoplasma gondii [31]": {"system": "Toxoplasma gondii", "test": "as §1, with “wild type” for “SB-203580-resistant”, “Me49” for “SBRMe49-2”", "format": "functional, organism-based"}}, "note": "pIC50: −log10 of the molar value. Activity calls are given as the source filed them. No cut-off for these calls is given here.", "data": [{"compound": "Oc1ccc(-c2nc(-c3ccc(F)cc3)c(-c3ccncc3)[nH]2)cc1", "values": [{"measurement": "Activity", "setting": "Toxoplasma gondii [1]", "result": "inactive"}]}, {"compound": "OCCC#Cc1nc(-c2ccc(F)cc2)c(-c2ccncc2)n1CCCc1ccccc1", "note": "[RWJ-67657]", "values": [{"measurement": "pIC50", "setting": "[2]", "result": 6.70}, {"measurement": "Activity", "setting": "Toxoplasma gondii [1]", "result": "inactive"}, {"measurement": "Activity", "setting": "Toxoplasma gondii [3]", "result": "inactive"}, {"measurement": "Activity", "setting": "Toxoplasma gondii [4]", "result": "inactive"}, {"measurement": "Activity", "setting": "Toxoplasma gondii [5]", "result": "inactive"}, {"measurement": "Activity", "setting": "Toxoplasma gondii [6]", "result": "inactive"}, {"measurement": "Activity", "setting": "Toxoplasma gondii [7]", "result": "Active"}, {"measurement": "Activity", "setting": "Toxoplasma gondii [8]", "result": "inactive"}, {"measurement": "Activity", "setting": "Toxoplasma gondii [9]", "result": 40, "unit": "%"}, {"measurement": "Activity", "setting": "Toxoplasma gondii [10]", "result": "inactive"}, {"measurement": "Activity", "setting": "Toxoplasma gondii [11]", "result": "inactive"}, {"measurement": "Activity", "setting": "Toxoplasma gondii [12]", "result": 100, "unit": "%"}, {"measurement": "Activity", "setting": "Toxoplasma gondii [13]", "result": 100, "unit": "%"}, {"measurement": "Activity", "setting": "Toxoplasma gondii [14]", "result": "inactive"}, {"measurement": "Activity", "setting": "Toxoplasma gondii [15]", "result": "inactive"}, {"measurement": "Activity", "setting": "Mus musculus [16]", "result": "Toxic"}, {"measurement": "Activity", "setting": "Mus musculus [17]", "result": "Non-toxic"}, {"measurement": "Activity", "setting": "Mus musculus [18]", "result": "Non-toxic"}, {"measurement": "Activity", "setting": "Mus musculus [19]", "result": "Non-toxic"}, {"measurement": "Activity", "setting": "Encephalitozoon cuniculi [20]", "result": "Active"}, {"measurement": "Activity", "setting": "Encephalitozoon cuniculi [21]", "result": "inactive"}, {"measurement": "Activity", "setting": "Toxoplasma gondii [22]", "result": 30, "unit": "days"}, {"measurement": "Activity", "setting": "Toxoplasma gondii [23]", "result": 30, "unit": "days"}, {"measurement": "Activity", "setting": "Toxoplasma gondii [24]", "result": 30, "unit": "days"}, {"measurement": "Activity", "setting": "Toxoplasma gondii [25]", "result": 30, "unit": "days"}, {"measurement": "Activity", "setting": "Toxoplasma gondii [26]", "result": 80, "unit": "%"}, {"measurement": "Activity", "setting": "Toxoplasma gondii [27]", "result": 80, "unit": "%"}, {"measurement": "pIC50", "setting": "[28]", "result": 6.00}, {"measurement": "pIC50", "setting": "Toxoplasma gondii [29]", "result": 5.30}, {"measurement": "pIC50", "setting": "Toxoplasma gondii [30]", "result": 6.10}]}, {"compound": "CCc1nc(-c2ccc(OC)cc2)[nH]c1-c1ccncc1", "note": "[SB-202474]", "values": [{"measurement": "Activity", "setting": "Toxoplasma gondii [31]", "result": "inactive"}, {"measurement": "Activity", "setting": "Toxoplasma gondii [1]", "result": "inactive"}, {"measurement": "Activity", "setting": "Toxoplasma gondii [22]", "result": 30, "unit": "days"}, {"measurement": "Activity", "setting": "Toxoplasma gondii [23]", "result": 30, "unit": "days"}, {"measurement": "Activity", "setting": "Toxoplasma gondii [24]", "result": 30, "unit": "days"}, {"measurement": "Activity", "setting": "Toxoplasma gondii [25]", "result": 30, "unit": "days"}]}, {"compound": "C[S+]([O-])c1ccc(-c2nc(-c3ccc(F)cc3)c(-c3ccncc3)[nH]2)cc1", "note": "(stereo not drawn) [SB-203580]", "values": [{"measurement": "Activity", "setting": "Toxoplasma gondii [22]", "result": 30, "unit": "days"}, {"measurement": "Activity", "setting": "Toxoplasma gondii [23]", "result": 30, "unit": "days"}, {"measurement": "Activity", "setting": "Toxoplasma gondii [24]", "result": 30, "unit": "days"}, {"measurement": "Activity", "setting": "Toxoplasma gondii [25]", "result": 30, "unit": "days"}, {"measurement": "pIC50", "setting": "Toxoplasma gondii [29]", "result": 5.07}, {"measurement": "pIC50", "setting": "Toxoplasma gondii [30]", "result": 5.60}]}]}
